Test system: P12-Ichikawa
Assay: cell viability relative to DMSO control; higher = less cytotoxic
Conditions: 48 h
Summary of the method: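 NOMO1 or SEM cells were plated at 500 cells/well and P12-Ichikawa cells at 1000 cells/well in 1536-well plates (5 μl), after each leukemia line had been adapted for at least four passages in each medium. Pin dosing delivered library compounds in DMSO at 11 threefold concentrations, 47 μM to 0.79 nM. CellTiter-Glo One luminescence was read after 48 h at 37°C. Viability is reported as a per-plate percentage of DMSO wells, with cell-free wells as background.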

[1] = HPLM + 10% dialyzed FBS, 0.000781 µM
[2] = HPLM + 10% dialyzed FBS, 0.00234 µM
[3] = HPLM + 10% dialyzed FBS, 0.00702 µM
[4] = HPLM + 10% dialyzed FBS, 0.0211 µM
[5] = HPLM + 10% dialyzed FBS, 0.0632 µM
[6] = HPLM + 10% dialyzed FBS, 0.19 µM
[7] = HPLM + 10% dialyzed FBS, 0.569 µM
[8] = HPLM + 10% dialyzed FBS, 1.71 µM
[9] = HPLM + 10% dialyzed FBS, 5.12 µM
[10] = HPLM + 10% dialyzed FBS, 15.4 µM
[11] = HPLM + 10% dialyzed FBS, 46.1 µM
[12] = RPMI 5 mM glucose + 10% FBS, 0.000781 µM
[13] = RPMI 5 mM glucose + 10% FBS, 0.00234 µM
[14] = RPMI 5 mM glucose + 10% FBS, 0.00702 µM
[15] = RPMI 5 mM glucose + 10% FBS, 0.0211 µM
[16] = RPMI 5 mM glucose + 10% FBS, 0.0632 µM
[17] = RPMI 5 mM glucose + 10% FBS, 0.19 µM
[18] = RPMI 5 mM glucose + 10% FBS, 0.569 µM
[19] = RPMI 5 mM glucose + 10% FBS, 1.71 µM
[20] = RPMI 5 mM glucose + 10% FBS, 5.12 µM
[21] = RPMI 5 mM glucose + 10% FBS, 15.4 µM
[22] = RPMI 5 mM glucose + 10% FBS, 46.1 µM
[23] = RPMI 5 mM glucose + 10% dialyzed FBS, 0.000781 µM
[24] = RPMI 5 mM glucose + 10% dialyzed FBS, 0.00234 µM
[25] = RPMI 5 mM glucose + 10% dialyzed FBS, 0.00702 µM
[26] = RPMI 5 mM glucose + 10% dialyzed FBS, 0.0211 µM
[27] = RPMI 5 mM glucose + 10% dialyzed FBS, 0.0632 µM
[28] = RPMI 5 mM glucose + 10% dialyzed FBS, 0.19 µM
[29] = RPMI 5 mM glucose + 10% dialyzed FBS, 0.569 µM
[30] = RPMI 5 mM glucose + 10% dialyzed FBS, 1.71 µM
[31] = RPMI 5 mM glucose + 10% dialyzed FBS, 5.12 µM
[32] = RPMI 5 mM glucose + 10% dialyzed FBS, 15.4 µM
[33] = RPMI 5 mM glucose + 10% dialyzed FBS, 46.1 µM

| SMILES | cell viability [1] [%] | cell viability [2] [%] | cell viability [3] [%] | cell viability [4] [%] | cell viability [5] [%] | cell viability [6] [%] | cell viability [7] [%] | cell viability [8] [%] | cell viability [9] [%] | cell viability [10] [%] | cell viability [11] [%] | cell viability [12] [%] | cell viability [13] [%] | cell viability [14] [%] | cell viability [15] [%] | cell viability [16] [%] | cell viability [17] [%] | cell viability [18] [%] | cell viability [19] [%] | cell viability [20] [%] | cell viability [21] [%] | cell viability [22] [%] | cell viability [23] [%] | cell viability [24] [%] | cell viability [25] [%] | cell viability [26] [%] | cell viability [27] [%] | cell viability [28] [%] | cell viability [29] [%] | cell viability [30] [%] | cell viability [31] [%] | cell viability [32] [%] | cell viability [33] [%] |
| --- | --- | --- | --- | --- | --- | --- | --- | --- | --- | --- | --- | --- | --- | --- | --- | --- | --- | --- | --- | --- | --- | --- | --- | --- | --- | --- | --- | --- | --- | --- | --- | --- | --- |
| Cc1ncc(OC[C@@]2(c3cccc(F)c3)C[C@H]2C(=O)Nc2ccc(F)cn2)c(C)n1 | 104 | 101 | 104 | 104 | 105 | 111 | 114 | 102 | 102 | 103 | 13.4 | 107 | 107 | 108 | 112 | 110 | 106 | 106 | 107 | 107 | 106 | 97.3 | 111 | 108 | 119 | 113 | 108 | 121 | 116 | 115 | 117 | 106 | 96.2 |
| OCc1ccc(-c2nn(Cc3ccccc3)c3ccccc23)o1 | 118 | 109 | 103 | 107 | 113 | 108 | 104 | 93.8 | 96.5 | 105 | 73.7 | 117 | 119 | 128 | 126 | 113 | 115 | 117 | 104 | 116 | 113 | 60.9 | 109 | 110 | 108 | 112 | 100 | 108 | 113 | 103 | 102 | 98.9 | 49.5 |
| C[C@@H]1CN[C@H]2[C@@H](C)[C@@]\3(CC[C@H]\4[C@@H]5C/C=C6/C[C@@H](O)CC[C@]6(C)[C@H]5CC4=C3C)O[C@@H]2C1 | – | – | – | – | – | – | – | – | – | – | – | – | – | – | – | – | – | – | – | – | – | – | 119 | 125 | 123 | 121 | 124 | 115 | 114 | 114 | 109 | 101 | 93.1 |
| CC(=O)Nc1ccc([C@H](C)C(=O)Nc2ncc(C(C)C)s2)cc1 | 97.9 | 101 | 94.5 | 98.4 | 100 | 92.1 | 96.7 | 94.4 | 89.9 | 24.6 | 5.24 | 95.6 | 96.9 | 101 | 95.1 | 93.3 | 93.8 | 97.6 | 107 | 101 | 26 | 6.22 | 99.3 | 89.5 | 97.2 | 99.5 | 110 | 101 | 99.4 | 99.7 | 83.7 | 22.8 | 5.31 |
| Cc1cc(Nc2nc(N[C@@H](C)c3ncc(F)cn3)ncc2Cl)n[nH]1 | 95.1 | 111 | 109 | 114 | 116 | 119 | 126 | 108 | 70.6 | 55 | 56.9 | 113 | 122 | 116 | 126 | 112 | 112 | 118 | 118 | 115 | 98 | 42.5 | 109 | 110 | 119 | 117 | 121 | 119 | 109 | 118 | 90.8 | 50.6 | 45.2 |
| COc1cc2c(Oc3ccc(NC(=O)C4(C(=O)Nc5ccc(F)cc5)CC4)cc3F)ccnc2cc1OCCCN1CCOCC1 | 86.3 | 90.5 | 87 | 88.8 | 81.2 | 81.8 | 78.5 | 38.7 | 8.94 | 8.26 | 5.1 | 83.8 | 90.3 | 84.8 | 83.5 | 85.7 | 74.3 | 77.1 | 59.5 | 10 | 11 | 4.54 | 86.2 | 82.9 | 86.6 | 89.3 | 85.4 | 80 | 88.2 | 44.6 | 14.7 | 12.4 | 4.34 |
| CC1(C)CCC(=C(CN2CCN(CC2)C3=CC=C(C=C3)C(=O)N[S+]([O-])(=O)C4=CC(=C(N[C@H](CCN5CCOCC5)CSC6=CC=CC=C6)C=C4)[S+]([O-])(=O)C(F)(F)F)\C1)/C7=CC=C(Cl)C=C7 | 116 | 120 | 121 | 122 | 92.5 | 40.9 | 20 | 6.68 | 7.29 | 7.3 | 4.74 | – | – | – | – | – | – | – | – | – | – | – | 120 | 124 | 127 | 122 | 109 | 73.4 | 39.1 | 7.42 | 7.07 | 6.25 | 4.69 |
| CN(C)CCc1c[nH]c2ccc(C[C@H]3COC(=O)N3)cc12 | 98.4 | 109 | 109 | 115 | 105 | 105 | 116 | 112 | 88.7 | 13.7 | 9.01 | 105 | 101 | 112 | 104 | 111 | 117 | 116 | 102 | 84.1 | 36.2 | 6.37 | 108 | 100 | 105 | 111 | 106 | 111 | 104 | 112 | 80.2 | 38.2 | 7.95 |
